Assay results from US20020156077A1, “Non-steroidal estrogen receptor ligands” (priority 2001, published 2002).
Like-named read-outs stand apart in the source and are kept apart here.

Tests used:
MCF-7 cells = assay: MCF-7 cell proliferation assay (MTT), estradiol stimulated versus unstimulated; type: cell-based, human; details: FIGS. 1 and 2
Description: Those skilled in the art will appreciate that several acceptable estrogen receptor-binding assays are known and available for initial screening of the compounds of the present invention. The initial screen chosen was a human cell line assay, namely the MCF-7 cell proliferation assay for detecting anti-estrogenic/estrogenic activity. The MCF-7 human breast cancer cell line has been used as an industry standard for the evaluation of estrogen receptor antagonists. MCF-7 cells are estrogen-receptor positive (ER+) cancer cells that respond to estradiol stimulation. Antiestrogenic activity is measured in terms of a test article's ability to inhibit estradiol stimulated proliferation, implying an antagonistic action on the estrogen receptor and estogenic activity can be inferred from increased proliferation. The following testing procedure was used.
MCF-7 cells were maintained in RPMI medium free of phenol red and supplemented with 5% charcoal-stripped foetal calf serum, hydrocortisone, bovine insulin, penicillin and streptomycin until they reached 70% confluence. […] Cell survival was evaluated after 3-6 days, by replacing the culture media with 150 μl of fresh medium containing 10 mM 4-(2-hydroxyethyl)-1-piperazineethamsulfonic acid buffer (pH 7.4) followed by addition of 50 μl of 2.5 mg/ml of 3-(4,5-dimethylthiazo-2-yl)-2,5-diphenyltetrazolium bromide (MTT). […]

[1] = system: tamoxifen-resistant breast cancers; details: tamoxifen-resistant breast cancer patients; cited from earlier work
[2] = molecular target: T1, human recombinant estrogen receptor alpha (Homo sapiens, UniProt P03372); assay: Estrogen receptor alpha binding assay, displacement of [3H] Estradiol
T1 construct: purchased PanVera Corporation
T1 sequence (P03372 1-595): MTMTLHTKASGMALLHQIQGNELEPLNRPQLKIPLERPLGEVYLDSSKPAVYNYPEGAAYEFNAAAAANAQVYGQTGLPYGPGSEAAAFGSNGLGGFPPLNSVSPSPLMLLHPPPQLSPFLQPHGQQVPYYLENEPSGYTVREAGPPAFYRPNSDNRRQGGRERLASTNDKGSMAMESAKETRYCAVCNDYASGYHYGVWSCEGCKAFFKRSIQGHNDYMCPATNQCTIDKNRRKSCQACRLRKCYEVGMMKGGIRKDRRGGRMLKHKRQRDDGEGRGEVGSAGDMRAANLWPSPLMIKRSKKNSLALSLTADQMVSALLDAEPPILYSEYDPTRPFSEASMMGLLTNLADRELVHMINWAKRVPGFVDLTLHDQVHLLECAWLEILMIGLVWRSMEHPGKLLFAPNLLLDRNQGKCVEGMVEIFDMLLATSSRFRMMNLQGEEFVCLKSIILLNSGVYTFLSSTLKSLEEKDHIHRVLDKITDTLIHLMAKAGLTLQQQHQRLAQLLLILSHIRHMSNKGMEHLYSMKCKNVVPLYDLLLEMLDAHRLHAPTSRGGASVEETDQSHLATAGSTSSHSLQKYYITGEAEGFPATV
Description: (§1) The human estrogen receptor occurs in two subtypes, alpha and beta. The stable expression of these individual receptor subtypes in cells provides a rapid and accurate means of quantifying the direct interaction of a test article with the estrogen binding sites. Briefly, this assay is conducted in 96 well plates where a series of concentrations of test article are used to displace tritiated estradiol from either estrogen receptor alpha or estrogen receptor beta bearing cell membranes, under equilibrium conditions. […] This measurement is the primary test for mediation of the estrogen receptor and can also be used to measure the relative selectivity of the test article for either the alpha or beta subtype.
The alpha subtype assay measures the binding of [^3H] Estradiol to the human recombinant estrogen receptor. […] Briefly, after proper dilution, a 4.5 ng aliquot of receptor protein in modified Tris-HCL pH 7.5 buffer is incubated with 0.5 nM [^3H] Estradiol for 2 hours at 25° C. Non-specific binding is estimated in the presence of 1.0 μM diethylstilbestrol. Membranes are filtered and washed 3 times, and the filters are counted to determine [^3H] Estradiol specifically bound. Under the same conditions the receptor protein is incubated with varied concentrations of test article ranging from 1 nM to 1 μM and the displacement of [^3H] Estradiol is measured in duplicate. The measurement of the displaced tritiated estradiol allows the determination of an IC50 value, a direct measure of the test articles interaction with the estrogen receptor alpha.

[3] = molecular target: human recombinant estrogen receptor beta (Homo sapiens, UniProt Q92731); assay: Estrogen receptor beta binding assay, displacement of [3H] Estradiol
Description: as §1
The beta subtype assay also allowed the determination of an IC50 value of the test article under the same conditions as for the alpha subtype assay with the exception that a 7.5 ng aliquot of receptor protein preparation was used.

[4] = 0.5 nM [3H] Estradiol, 2 hours at 25° C, 4.5 ng receptor protein, read-out: IC50 Value, ER Subtype Alpha
[5] = 0.5 nM [3H] Estradiol, 2 hours at 25° C, 7.5 ng receptor protein, read-out: IC50 Value, ER Subtype Beta

Chain of human recombinant estrogen receptor beta (Q92731 whole entry): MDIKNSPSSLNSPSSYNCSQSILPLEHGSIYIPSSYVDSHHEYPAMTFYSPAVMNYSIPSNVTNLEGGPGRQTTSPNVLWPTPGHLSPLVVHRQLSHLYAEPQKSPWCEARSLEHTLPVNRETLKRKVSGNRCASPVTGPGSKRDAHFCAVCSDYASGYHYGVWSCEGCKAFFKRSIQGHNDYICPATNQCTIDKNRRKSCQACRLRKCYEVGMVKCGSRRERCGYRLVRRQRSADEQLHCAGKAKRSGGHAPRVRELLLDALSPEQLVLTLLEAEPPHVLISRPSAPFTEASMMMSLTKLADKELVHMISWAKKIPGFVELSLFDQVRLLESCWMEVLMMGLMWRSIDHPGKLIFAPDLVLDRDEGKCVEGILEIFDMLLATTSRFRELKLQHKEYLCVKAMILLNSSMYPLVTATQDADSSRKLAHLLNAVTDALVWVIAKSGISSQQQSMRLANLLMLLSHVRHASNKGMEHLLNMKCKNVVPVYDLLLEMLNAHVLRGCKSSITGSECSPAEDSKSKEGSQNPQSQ

Compound | effect on estradiol stimulated MCF-7 cell proliferation (shift of dose-response curves) (MCF-7 cells) | IC50 [2, 4] | IC50 [3, 5] | also measured
CC(=O)c1ccc2c(c1)c(-c1ccc(OCCN3CCCCC3)cc1)cc1cc(O)cc(C)c12 [Formula 4, 1-[7-hydroxy-5-methyl-10-[4-(2-piperidin-1-yl-ethoxy)-phenyl]-phenanthren-2-yl]-ethanone] | antagonizing the effect of estradiol | – | – | –
C[C@]12CC[C@@H]3c4ccc(O)cc4C[C@@H](CCCCCCCCC[S+]([O-])CCCC(F)(F)C(F)(F)F)[C@H]3[C@@H]1CC[C@@H]2O (stereo partly drawn) [ICI 182780] | – | – | – | tamoxifen-resistant patients who responded [1]: approximately two-thirds
Cc1cc(O)cc2cc(-c3ccc(OCCN4CCCCC4)cc3)c3cc(C(=O)C(C)C)ccc3c12 [formula 3, 1-[7-hydroxy-5-methyl-10-[4-(2-piperidin-1-yl-ethoxy)-phenyl]-phenanthren-2-yl]-2-methyl-propan-1-one] | antagonizing the effect of estradiol | 39 nM | 120 nM | –
C=C(C)c1ccc2c(c1)c(-c1ccc(OCCN3CCCCC3)cc1)cc1cc(O)cc(C)c12 [formula 5] | – | 32 nM | – | IC50 [3]: 20 nM
CC(C)=C(C)c1ccc2c(c1)c(-c1ccc(OCCN3CCCCC3)cc1)cc1cc(O)cc(C)c12 [formula 6, 7-(1,2-dimethylpropenyl)-4-methyl-9-[4-(2-piperidin-1-yl-ethoxy)-phenyl]-phenanthren-2-ol] | – | – | 9 nM | IC50 [2]: 18 nM
